The source of these data is patent US20220168302A1, “SALTS OF A COMPOUND, CRYSTAL FORMS OF THE SALTS AND PREPARATION METHOD AND USE THEREOF” (Gan & Lee Pharmaceuticals Co., Ltd., priority 2019, published 2022).

Format in all cases: physicochemical
Data set [1] can be described thus: Dynamic moisture adsorption (DVS) hygroscopicity test. Particulars: for Hygroscopicity (moisture adsorption capacity): DVS, 25° C./80% RH; for Whether the crystal form has a change: XRPD before and after DVS test. As to the method: The moisture adsorption capacities of the representative salts and the free base of the above Examples and Comparative Examples were tested when the humidity reached 80% RH through a dynamic moisture adsorption (DVS) test at 25° C., so as to compare the hygroscopicities.
Experimental results: the test results are shown in Table 13, wherein, >15% means very hygroscopic, 2% to 15% means hygroscopic, 0.2% to 2% means slightly hygroscopic, and <0.2% means almost non-hygroscopic.

Data set [2] in a line: Solid-state stability test, one week, HPLC purity. Particulars: for HPLC purity 1 week: open container; for HPLC purity, Initial purity: before storage. As to the method: Experimental method: appropriate amount of samples were respectively weighed and placed in open containers under the conditions of light illumination of 4500 lux, 25° C./60% RH and 40° C./75% RH to perform solid-state stability test evaluation for one week. One week later, the purities of the test samples were tested by HPLC to detect the change of purity. Three groups of parallel tests were set for each test condition.
High performance liquid chromatograms were collected on an Agilent 1100 HPLC.

Data set [3] can be described thus: Solubility test in water, FaSSIF and FeSSIF (24 h, 37° C., HPLC concentration). The following applies: initial feeding amount 10 mg/ml; for Solubility in FaSSIF: fasted state simulated intestinal fluid; for Solubility in FeSSIF: fed state simulated intestinal fluid. As to the method: Experimental method: the solubility test was carried out in three solvents including water, fasted state simulated intestinal fluid (FaSSIF) and fed state simulated intestinal fluid (FeSSIF), to evaluate the solubilities of the salts of the present invention.
In the experiment, the sample and the solvent were mixed in a centrifuge tube (the initial feeding amount was 10 mg/ml), then the centrifuge tube was sealed and fixed on a rotating disk with a rotation speed of 25 rpm, and sampling was performed after rotating and mixing for 24 h at 37° C. The turbid sample was subjected to centrifugal separation, and the filtered supernatant was measured for HPLC concentration. If the sample solution was clear, the concentration of the obtained solution was measured.

Values after ≈ are worked out from the molar mass of the structure shown.

On to `CC1=Nc2c(F)cc(-c3nc(Nc4ccc(C5CCN(C)CC5)cn4)ncc3F)cc2C12CCCC2` [Adipate crystal form A, Adipate of 5-fluoro-4-(7′-fluoro-2′-methylspiro[cyclopentane-1,3′-indol]-5′-yl)-N-(5-(1-methylpiperidin-4-yl)pyridin-2-yl)pyrimidine-2-amine], for which the “Hygroscopicity (moisture adsorption capacity)” value (“Hygroscopicity” for short) in data set [1] was 0.22%. The “Whether the crystal form has a change” value is given as “No change” in data set [1] and “no change” in data set [1] (listed as adipate crystal form A). In addition, the “HPLC purity 1 week Relative to the initial purity” value in data set [2] (25° C./60% RH) stood at 100.0%; in data set [2] (40° C./75% RH), 100.0%; in data set [2] (40° C./75% RH, listed as adipate crystal form A), 100%; in data set [2] (Light illumination 4500 lux), 100.0%; in data set [2] (Light illumination 4500 lux, listed as adipate crystal form A) it was 100%. Further, the “HPLC purity 1 week” value is 99.88 Area % in data set [2] (25° C./60% RH), 99.89 Area % in data set [2] (40° C./75% RH) and 99.88 Area % in data set [2] (Light illumination 4500 lux). Further, in data set [2], the “HPLC purity, Initial purity” value stood at 99.90 Area %. Further, in data set [3], the “Solubility in FaSSIF” value was 6800 µg/mL (≈ 13.9 mM). For the same molecule, in data set [3], the “Solubility in FeSSIF” value was 11600 µg/mL (≈ 23.7 mM). Also, in data set [3], the Solubility in water is 6500 µg/mL (≈ 13.3 mM).
In the case of `CC1=Nc2c(F)cc(-c3nc(Nc4ccc(C5CCN(C)CC5)cn4)ncc3F)cc2C12CCCC2.O=C(O)/C=C/C(=O)O` [Fumarate crystal form C, Fumarate of 5-fluoro-4-(7′-fluoro-2′-methylspiro[cyclopentane-1,3′-indol]-5′-yl)-N-(5-(1-methylpiperidin-4-yl)pyridin-2-yl)pyrimidine-2-amine], the “HPLC purity 1 week Relative to the initial purity” value in data set [2] (25° C./60% RH) was determined as 100.0%; in data set [2] (40° C./75% RH) it was 100.0%; in data set [2] (40° C./75% RH, listed as fumarate crystal form C), 100%; in data set [2] (Light illumination 4500 lux), 100.0%; in data set [2] (Light illumination 4500 lux, listed as fumarate crystal form C), 100%. Moreover, the “HPLC purity 1 week” value in data set [2] (25° C./60% RH) was found to be 99.48 Area %; in data set [2] (40° C./75% RH), 99.48 Area %; in data set [2] (Light illumination 4500 lux) it was 99.46 Area %. Also, in data set [2], the “HPLC purity, Initial purity” value came to 99.48 Area %. The “Solubility in FaSSIF” value in data set [3] is 5900 µg/mL. In addition, the “Solubility in FeSSIF” value in data set [3] was 13600 µg/mL. Further, the Solubility in water in data set [3] worked out at 480 µg/mL.
As to `CC1=Nc2c(F)cc(-c3nc(Nc4ccc(C5CCN(C)CC5)cn4)ncc3F)cc2C12CCCC2.Cl` [Hydrochloride crystal form B, Hydrochloride of 5-fluoro-4-(7′-fluoro-2′-methylspiro[cyclopentane-1,3′-indol]-5′-yl)-N-(5-(1-methylpiperidin-4-yl)pyridin-2-yl)pyrimidine-2-amine, reference compound], the “Hygroscopicity” value in data set [1] was found to be 9.12%. Moreover, the “Whether the crystal form has a change” value in data set [1] is given as “Change”; in data set [1] (listed as hydrochloride crystal form B) it was “changed to amorphous”.
As to `CC1=Nc2c(F)cc(-c3nc(Nc4ccc(C5CCN(C)CC5)cn4)ncc3F)cc2C12CCCC2.CS(=O)(=O)O` [Methanesulfonate crystal form A, Methanesulfonate of 5-fluoro-4-(7′-fluoro-2′-methylspiro[cyclopentane-1,3′-indol]-5′-yl)-N-(5-(1-methylpiperidin-4-yl)pyridin-2-yl)pyrimidine-2-amine, reference compound], the “Hygroscopicity” value in data set [1] is recorded as 12.02%. Besides, the “Whether the crystal form has a change” value is given as “Change” in data set [1] and “changed to amorphous” in data set [1] (listed as methanesulfonate crystal form A). For the same molecule, the “HPLC purity 1 week Relative to the initial purity” value turned out to be 99.9% in data set [2] (25° C./60% RH), 99.4% in data set [2] (40° C./75% RH) and 98.5% in data set [2] (Light illumination 4500 lux). Further, the entries for the “HPLC purity 1 week” value in data set [2] (25° C./60% RH), in data set [2] (40° C./75% RH) and in data set [2] (Light illumination 4500 lux) were 99.73 Area %, 99.16 Area % and 98.28 Area %, respectively. Also, the “HPLC purity, Initial purity” value in data set [2] was found to be 99.81 Area %.
